The subject of series [1] is Klebsiella pneumoniae. Briefly: Antimicrobial activity against Klebsiella pneumoniae ATCC 10031 after 24 hrs by broth microdilution method. It is filed as functional. The conditions noted are these: ATCC 10031, 24 h.
The nature of series [2]: Hemolytic activity in human RBC at 12.5 uM after 30 mins relative to control. The series is classed as ADME, cell-based, Erythrocyte. The conditions noted are these: human red blood cells (RBC), read-out: Activity.
Series [3] concerns Staphylococcus epidermidis. The series can be described thus: Antimicrobial activity against Staphylococcus epidermidis ATCC 12228 after 24 hrs by broth microdilution method. The conditions noted are these: ATCC 12228, 24 h. The series is classed as functional. A general note: Broth dilution looks for growth in wells or tubes with falling amounts of substance.
Series [4] can be described thus: Hemolytic activity in human RBC at 25 uM after 30 mins relative to control. Conditions: human red blood cells (RBC), read-out: Activity. It is filed as ADME, cell-based, Erythrocyte.
Series [5] relates to Salmonella typhimurium. The series can be described thus: Antimicrobial activity against Salmonella typhimurium ATCC 14028 after 24 hrs by broth microdilution method. The conditions noted are these: Salmonella enterica, ATCC 14028, 24 h. It is filed as functional, Salmonella enterica subsp. enterica serovar Typhimurium.
Series [6] deals with Pseudomonas aeruginosa. The series can be described thus: Antimicrobial activity against Pseudomonas aeruginosa ATCC 27853 after 24 hrs by broth microdilution method. The series is classed as functional. The conditions noted are these: ATCC 27853, 24 h.
Series [7] deals with Escherichia coli. The series can be described thus: Antimicrobial activity against Escherichia coli ATCC 25922 after 24 hrs by broth microdilution method. The series is classed as functional. The conditions noted are these: ATCC 25922, 24 h.
Series [8] deals with Bacillus spizizenii. Briefly: Antimicrobial activity against Bacillus subtilis ATCC 6633 after 24 hrs by broth microdilution method. It is filed as functional. Conditions: ATCC 6633, 24 h.
In series [9] the test system is Staphylococcus aureus. The series can be described thus: Antimicrobial activity against Staphylococcus aureus ATCC 6538p after 24 hrs by broth microdilution method. It is filed as functional.
The test system of series [10] is Shigella dysenteriae. The series can be described thus: Antimicrobial activity against Shigella dysenteriae ATCC 9752 after 24 hrs by broth microdilution method. The series is classed as functional. Conditions: ATCC 9752, 24 h.
The test system of series [11] is trypsin. Briefly: Stability of the compound assessed as trypsin (unknown origin)-mediated compound degradation by measuring compound remaining at substrate/enzyme ratio of 1600/1 at 25 degC after 60 mins by HPLC analysis. The series is classed as ADME. Conditions: human, read-out: Stability.
Series [12] in a line: (§1) Stability of the compound assessed as trypsin (unknown origin)-mediated compound degradation at substrate/enzyme ratio of 1600/1 at 25 degC after 10 mins by HPLC analysis. It is filed as ADME. The conditions noted are these: human, 10 min.
Series [13] has as its system trypsin. Described as §1. The series is classed as ADME. The conditions noted are these: human, trypsin (unknown origin); read-out: Drug degradation.

≈ marks a conversion by molar mass, not a printed value. Starred links: 1 amine or outer side, 2 acyl side, 3 side chain; linkers in the order of their positions; H or OH if unused. Positions of bridges follow the written chain, without caps; N, C: chain ends. Non-standard residues stand in square brackets, D forms with d. Residues, ends and D or L forms follow the SMILES beside them. R5 = C=CCCC[C@@](C)(N)C(=O)O; Suc = O=C(CCC(=O)[*:2])[*:1]

Usually MIC stands for the smallest concentration in the dilution series that meets the test's criterion for growth inhibition. For `C[C@@H]1NC(=O)[C@H](CCCCN)NC(=O)[C@H](C)NC(=O)[C@](C)(NC(=O)[C@H](CCCCN)NC(=O)[C@H](CCCCN)NC(=O)[C@@]2(C)CCC/C=C\CCC[C@@](C)(NC(=O)[C@@H](N)CCCCN)C(=O)N[C@@H](C)C(=O)N[C@@H](CCCCN)C(=O)N[C@@H](Cc3c[nH]c4ccccc34)C(=O)N2)CCC/C=C\CCC[C@](C)(C(=O)N[C@@H](C)C(=O)N[C@@H](CCCCN)C(N)=O)NC1=O` (H-K[R5]AKW[R5]KK[R5]AKA[R5]AK-NH2; staple (Z) 2-6, 9-13), the MIC in series [1] stood at 12.5 mg/L (≈ 7.11 µM); in series [3], 1.6 mg/L (≈ 0.91 µM); in [5], 6.3 mg/L (≈ 3.59 µM); in series [6] it was 6.3 mg/L (≈ 3.59 µM); in [7], 3.1 mg/L (≈ 1.76 µM); in series [8], 1.6 mg/L (≈ 0.91 µM). Moreover, the MIC in series [9] was 1.6 mg/L (≈ 0.91 µM); in series [10], 12.5 mg/L (≈ 7.11 µM). The hemolysis at 0.5 h, 12.5 µM in series [2] came out at 13.5%. For the same compound, the hemolysis at 0.5 h, 25 µM in series [4] was determined as 25.5%.

For the compound `CC(=O)N[C@@H](CCCCN)C(=O)N[C@]1(C)CCC/C=C\CCC[C@](C)(C(=O)N[C@@H](CCCCN)C(=O)N[C@@H](CCCCN)C(=O)N[C@]2(C)CCC/C=C\CCC[C@](C)(C(=O)N[C@@H](C)C(=O)N[C@@H](CCCCN)C(N)=O)NC(=O)[C@H](C)NC(=O)[C@H](CCCCN)NC(=O)[C@H](C)NC2=O)NC(=O)[C@H](Cc2c[nH]c3ccccc23)NC(=O)[C@H](CCCCN)NC(=O)[C@H](C)NC1=O` (Ac-K[R5]AKW[R5]KK[R5]AKA[R5]AK-NH2; staple (Z) 2-6, 9-13), the MIC was found to be 37.5 mg/L (≈ 20.8 µM) in series [1]; 1.6 mg/L (≈ 0.889 µM) in series [3]; 37.5 mg/L (≈ 20.8 µM) in [5]; 25 mg/L (≈ 13.9 µM) in [6]; 18.8 mg/L (≈ 10.4 µM) in series [7]; 1.6 mg/L (≈ 0.889 µM) in [8]. In addition, the results for the MIC in series [9] and in series [10] were 1.6 mg/L (≈ 0.889 µM) and 25 mg/L (≈ 13.9 µM), respectively. For the same compound, the hemolysis at 0.5 h, 12.5 µM in [2] amounted to 22%. Further, the hemolysis at 0.5 h, 25 µM in series [4] worked out at 38.5%.

In the case of `CC(=O)N[C@@H](CCCCN)C(=O)N[C@]1(C)CCC/C=C\CCC[C@](C)(C(=O)N[C@@H](CCCCN)C(=O)N[C@@H](CCCCN)C(=O)N[C@]2(C)CCC/C=C\CCC[C@](C)(C(=O)N[C@@H](C)C(=O)N[C@@H](CCCCN)C(N)=O)NC(=O)[C@H](Cc3c[nH]c4ccccc34)NC(=O)[C@H](CCCCN)NC(=O)[C@H](C)NC2=O)NC(=O)[C@H](C)NC(=O)[C@H](CCCCN)NC(=O)[C@H](C)NC1=O` (Ac-K[R5]AKA[R5]KK[R5]AKW[R5]AK-NH2; staple (Z) 2-6, 9-13), the MIC in series [1] came to 100 mg/L (≈ 55.6 µM); in [3], 4.8 mg/L (≈ 2.67 µM); in series [5] it was 200 mg/L (≈ 111 µM); in [6] it was 100 mg/L (≈ 55.6 µM); in series [7], 50 mg/L (≈ 27.8 µM); in series [8], 1.6 mg/L (≈ 0.889 µM). In addition, the MIC in [9] turned out to be 3.1 mg/L (≈ 1.72 µM); in series [10], 50 mg/L (≈ 27.8 µM). In [2], the hemolysis at 0.5 h, 12.5 µM came to 25.3%. Further, in [4], the hemolysis at 0.5 h, 25 µM is 42.5%.

Consider `CC(=O)N[C@@H](CCCCN)C(=O)N[C@]1(C)CCC/C=C\CCC[C@](C)(C(=O)N[C@@H](CCCCN)C(=O)N[C@@H](CCCCN)C(=O)N[C@]2(C)CCC/C=C\CCC[C@](C)(C(=O)N[C@@H](Cc3c[nH]c4ccccc34)C(=O)N[C@@H](CCCCN)C(N)=O)NC(=O)[C@H](C)NC(=O)[C@H](CCCCN)NC(=O)[C@H](C)NC2=O)NC(=O)[C@H](C)NC(=O)[C@H](CCCCN)NC(=O)[C@H](C)NC1=O` (Ac-K[R5]AKA[R5]KK[R5]AKA[R5]WK-NH2; staple (Z) 2-6, 9-13), for which the MIC in series [1] is 200 mg/L (≈ 111 µM); in [3], 3.1 mg/L (≈ 1.72 µM); in series [5] it was 100 mg/L (≈ 55.6 µM); in series [6], 100 mg/L (≈ 55.6 µM); in series [7] it was 25 mg/L (≈ 13.9 µM); in [8] it was 1.6 mg/L (≈ 0.889 µM). For the same compound, the minimum inhibitory concentration (MIC) in series [9] came out at 4.8 mg/L (≈ 2.67 µM); in series [10] it was 25 mg/L (≈ 13.9 µM). In addition, the hemolysis at 0.5 h, 12.5 µM in series [2] came to 22.1%. Moreover, the remaining at 1 h in series [11] is over 85%. Besides, the hemolysis at 0.5 h, 25 µM in [4] came to 38.8%.

With `C[C@@H]1NC(=O)[C@H](CCCCN)NC(=O)[C@H](C)NC(=O)[C@](C)(NC(=O)[C@H](CCCCN)NC(=O)[C@H](CCCCN)NC(=O)[C@@]2(C)CCC/C=C\CCC[C@@](C)(NC(=O)[C@H](CCCCN)NC(=O)CCC(=O)O)C(=O)N[C@@H](C)C(=O)N[C@@H](CCCCN)C(=O)N[C@@H](Cc3c[nH]c4ccccc34)C(=O)N2)CCC/C=C\CCC[C@](C)(C(=O)N[C@@H](C)C(=O)N[C@@H](CCCCN)C(N)=O)NC1=O` (Suc-K[R5]AKW[R5]KK[R5]AKA[R5]AK-NH2; staple (Z) 2-6, 9-13), the MIC in series [1] was 25 mg/L (≈ 13.5 µM); in series [3] it was 1.6 mg/L (≈ 0.861 µM); in series [5] it was over 200 mg/L; in series [6] it was 50 mg/L (≈ 26.9 µM); in [7] it was 12.5 mg/L (≈ 6.73 µM); in series [8], 1.6 mg/L (≈ 0.861 µM). The MIC turned out to be 1.6 mg/L (≈ 0.861 µM) in series [9] and 50 mg/L (≈ 26.9 µM) in series [10]. Further, the hemolysis at 0.5 h, 12.5 µM in series [2] came to 19.5%. For the same compound, in series [4], the hemolysis at 0.5 h, 25 µM came out at 32.6%.

For Ac-KAAKAAKKAAKAAWK-NH2, the minimum inhibitory concentration (MIC) in series [1], in series [3], in [5], in [6], in series [7] and in series [8] was over 200 mg/L throughout. For the same compound, the minimum inhibitory concentration (MIC) in series [9] and in series [10] was over 200 mg/L each time. The hemolysis at 0.5 h, 12.5 µM in series [2] is under 1%. In addition, the hemolysis at 0.5 h, 25 µM in series [4] is under 1%. The Stability entry in series [12] is on record as “Unstable”.

Regarding `CC(=O)N[C@@H](CCCCN)C(=O)N[C@]1(C)CCC/C=C\CCC[C@](C)(C(=O)N[C@@H](CCCCN)C(=O)N[C@@H](CCCCN)C(=O)N[C@@H](C)C(=O)N[C@@H](C)C(=O)N[C@@H](CCCCN)C(=O)N[C@@H](C)C(=O)N[C@@H](C)C(=O)N[C@@H](Cc2c[nH]c3ccccc23)C(=O)N[C@@H](CCCCN)C(N)=O)NC(=O)[C@H](C)NC(=O)[C@H](CCCCN)NC(=O)[C@H](C)NC1=O` (Ac-K[R5]AKA[R5]KKAAKAAWK-NH2; staple (Z) 2-6), the MIC in series [1] is 18.8 mg/L (≈ 11.1 µM); in series [3], 75 mg/L (≈ 44.3 µM); in [5], over 200 mg/L; in series [6] it was 100 mg/L (≈ 59.1 µM); in series [7], 3.1 mg/L (≈ 1.83 µM); in series [8] it was 25 mg/L (≈ 14.8 µM). Further, the MIC in [9] was found to be 9.4 mg/L (≈ 5.56 µM); in [10], 18.8 mg/L (≈ 11.1 µM). Moreover, the hemolysis at 0.5 h, 12.5 µM in [2] is under 1%. Moreover, the hemolysis at 0.5 h, 25 µM in series [4] is under 1%. For the same compound, the metabolised at 10 min in series [13] stood at 73%.

Take `CC(=O)N[C@@H](CCCCN)C(=O)N[C@]1(C)CCC/C=C\CCC[C@](C)(C(=O)N[C@@H](CCCCN)C(=O)N[C@@H](CCCCN)C(=O)N[C@]2(C)CCC/C=C\CCC[C@](C)(C(=O)N[C@@H](C)C(=O)N[C@@H](CCCCN)C(N)=O)NC(=O)[C@H](C)NC(=O)[C@H](CCCCN)NC(=O)[C@H](C)NC2=O)NC(=O)[C@H](C)NC(=O)[C@H](CCCCN)NC(=O)[C@H](Cc2c[nH]c3ccccc23)NC1=O` (Ac-K[R5]WKA[R5]KK[R5]AKA[R5]AK-NH2; staple (Z) 2-6, 9-13): the MIC in series [1] turned out to be 100 mg/L (≈ 55.6 µM); in [3], 4.8 mg/L (≈ 2.67 µM); in [5], 100 mg/L (≈ 55.6 µM); in series [6], 200 mg/L (≈ 111 µM); in series [7] it was 25 mg/L (≈ 13.9 µM); in [8], 3.1 mg/L (≈ 1.72 µM). The MIC in [9] was 4.8 mg/L (≈ 2.67 µM); in series [10], 50 mg/L (≈ 27.8 µM). The hemolysis at 0.5 h, 12.5 µM in series [2] is 28.9%. For the same compound, the hemolysis at 0.5 h, 25 µM in series [4] is 42.5%.

The record behind these values is ChEMBL document CHEMBL3608295, “Antimicrobial activity of doubly-stapled alanine/lysine-based peptides” (Bioorg Med Chem Lett, 2015).
